Test results reported in patent US20230123334A1, “AMINO LIPID COMPOUND, PREPARATION METHOD THEREFOR, AND APPLICATION THEREOF” (SHENZHEN SHENXIN BIOTECHNOLOGY CO., LTD., priority 2020, published 2023).

Tested on: HEK293 cells
Test: Preliminary screening as DNA vectors, GFP transfection of HEK293 cells
Format: cell-based
Conditions: amino lipid/DOPE liposome with 75 ng plasmid DNA (psin-EGFP-IRES-Puro); number of GFP-expressing cells divided by total nuclei (Hoechst)
Protocol: Cell line: HEK293 cells (ATCC CRL-1573™)
Medium: DMEM supplemented with 10% fetal bovine serum (Invitrogen)
Mode of screening: cell transfection on 96-well plates
Detection (readout): percentage of the number of GFP fluorescent cells relative to the total number of cells (the total number of cells was measured using nucleus dye Hoechst—see FIG. 2). Lipofectamine2000 (Invitrogen) was used as positive control, according to the manufacturer's instructions.
Method: an 8-channel pipette was used for sample addition. The contents shown were for a single well of a 96-well flat plate.
1. The compound (0.01 mmol) prepared in Example 1 was dissolved in 1 mL of anhydrous ethanol. After ultrasonically dissolved, 10 μL of the resultant amino lipid solution in ethanol was taken and mixed with 5 μL of DOPE solution in ethanol (0.01 m), and then to the obtained mixture was added 35 μL of 0.2M sodium acetate buffer (pH 5.6), and 50 μL of liposome solution was prepared by vortex at a constant rotating speed for 30 s. 4 μL was taken from the 50 μL liposome solution and added to 46 μL of 0.02M sodium acetate buffer (pH 5.6), and the final liposome solution was formed by vortex at a constant rotating speed for 30 s. 5 μL was taken from the final liposome solution and mixed with 75 ng plasmid DNA (psin-EGFP-IRES-Puro, Clontech) dissolved in 5 μL of 0.02 M sodium acetate buffer, and was allowed to stay at room temperature for 30 min to form a lipid/DNA transfection complex.
2. 10 μL of the lipid/DNA transfection complex was incubated at room temperature for 30 min, followed by addition of 90 μL of fresh resuspended cells (3-5×10^4 cells) and mixing with a pipette. 100 μL of cells+lipid/DNA complex was transferred to separate wells of a 96-well culture plate immediately, and placed in an incubator containing 5% CO2 at 37° C.
3. Hoechst33258 (Invitrogen) was added at a final concentration of 0.2 μg/mL to the cells 20 to 24 hours after initial cell transfection, and cultured in darkness at 37° C. for 15 min. Afterwards, the cells were washed once with a PBS solution, and then added with medium for culture for 20 to 24 h.
4. The cells were placed in a high-throughput confocal microscope (Molecular Devices ImageXpress), and four visual fields of the image of the cells were captured for each well, and images at three laser wavelengths were captured for each sample: bright field images of cells (FIG. 2(a) and FIG. 2(b)), Hoechst-staining images showing total nuclei (FIG. 2(c) and FIG. 2(d)) and GFP images showing success in transfection with the plasmid DNA and the expression of GFP (FIG. 2(e) and FIG. 2(f)). MetaXpress software was used to separately count the cells in the Hoechst-staining images and GFP images, and then the number of cells expressing GFP was divided by the total number of nuclei to give the absolute cell transfection efficiency. The absolute transfection efficiency was calculated as follows: […]

## CCCCCCCCCCCCCCCCSc1nc(NCCCN2CCOCC2)nc(SCCCCCC)n1 [S6S16 D8]
  Absolute DNA transfection efficiency in HEK293 cells: 0.0%

## CCCCCCCCCCCCCCCCSc1nc(NCCCN2CCN(C)CC2)nc(SCCCCCC)n1 [S6S16 D9]
  Absolute DNA transfection efficiency in HEK293 cells: 3.9%

## CCCCCCCCCCCCCCCCSc1nc(NCC2CCN(C)CC2)nc(SCCCCCC)n1 [S6S16 D10]
  Absolute DNA transfection efficiency in HEK293 cells: 37.6%

## CCCCCCCCCCCCCCCCCCSc1nc(NCCN(C)C)nc(SCCCCCC)n1 [S6S18 D1]
  Absolute DNA transfection efficiency in HEK293 cells: 9.8%

## CCCCCCCCCCCCCCCCCCSc1nc(NCCN2CCOCC2)nc(SCCCCCC)n1 [S6S18 D2]
  Absolute DNA transfection efficiency in HEK293 cells: 8.1%

## CCCCCCCCCCCCCCCCCCSc1nc(NCCN2CCCC2)nc(SCCCCCC)n1 [S6S18 D3]
  Absolute DNA transfection efficiency in HEK293 cells: 13.8%

## CCCCCCCCCCCCCCCCCCSc1nc(NCCN2CCCCC2)nc(SCCCCCC)n1 [S6S18 D4]
  Absolute DNA transfection efficiency in HEK293 cells: 10.4%

## CCCCCCCCCCCCCCCCCCSc1nc(NCCN2CCN(C)CC2)nc(SCCCCCC)n1 [S6S18 D5]
  Absolute DNA transfection efficiency in HEK293 cells: 15.1%

## CCCCCCCCCCCCCCCCCCSc1nc(NCCCN(C)C)nc(SCCCCCC)n1 [S6S18 D6]
  Absolute DNA transfection efficiency in HEK293 cells: 0.0%

## CCCCCCCCCCCCCCCCCCSc1nc(NCCN(CC)CC)nc(SCCCCCC)n1 [S6S18 D7]
  Absolute DNA transfection efficiency in HEK293 cells: 6.4%

## CCCCCCCCCCCCCCCCCCSc1nc(NCCCN2CCOCC2)nc(SCCCCCC)n1 [S6S18 D8]
  Absolute DNA transfection efficiency in HEK293 cells: 15.9%

## CCCCCCCCCCCCCCCCCCSc1nc(NCCCN2CCN(C)CC2)nc(SCCCCCC)n1 [S6S18 D9]
  Absolute DNA transfection efficiency in HEK293 cells: 8.7%

## CCCCCCCCCCCCCCCCCCSc1nc(NCC2CCN(C)CC2)nc(SCCCCCC)n1 [S6S18 D10]
  Absolute DNA transfection efficiency in HEK293 cells: 34.7%

## CCCCCCCCCCCCN(CCCCCCCCCCCC)c1nc(NCCN(C)C)nc(SCCCCCC)n1 [S6^2N12 D1]
  Absolute DNA transfection efficiency in HEK293 cells: 0.4%

## CCCCCCCCCCCCN(CCCCCCCCCCCC)c1nc(NCCN2CCOCC2)nc(SCCCCCC)n1 [S6^2N12 D2]
  Absolute DNA transfection efficiency in HEK293 cells: 0.0%

## CCCCCCCCCCCCN(CCCCCCCCCCCC)c1nc(NCCN2CCCC2)nc(SCCCCCC)n1 [S6^2N12 D3]
  Absolute DNA transfection efficiency in HEK293 cells: 0.1%

## CCCCCCCCCCCCN(CCCCCCCCCCCC)c1nc(NCCN2CCCCC2)nc(SCCCCCC)n1 [S6^2N12 D4]
  Absolute DNA transfection efficiency in HEK293 cells: 0.1%

## CCCCCCCCCCCCN(CCCCCCCCCCCC)c1nc(NCCN2CCN(C)CC2)nc(SCCCCCC)n1 [S6^2N12 D5]
  Absolute DNA transfection efficiency in HEK293 cells: 0.0%

## CCCCCCCCCCCCN(CCCCCCCCCCCC)c1nc(NCCCN(C)C)nc(SCCCCCC)n1 [S6^2N12 D6]
  Absolute DNA transfection efficiency in HEK293 cells: 0.2%

## CCCCCCCCCCCCN(CCCCCCCCCCCC)c1nc(NCCN(CC)CC)nc(SCCCCCC)n1 [S6^2N12 D7]
  Absolute DNA transfection efficiency in HEK293 cells: 0.3%

## CCCCCCCCCCCCN(CCCCCCCCCCCC)c1nc(NCCCN2CCOCC2)nc(SCCCCCC)n1 [S6^2N12 D8]
  Absolute DNA transfection efficiency in HEK293 cells: 0.0%

## CCCCCCCCCCCCN(CCCCCCCCCCCC)c1nc(NCCCN2CCN(C)CC2)nc(SCCCCCC)n1 [S6^2N12 D9]
  Absolute DNA transfection efficiency in HEK293 cells: 0.4%

## CCCCCCCCCCCCN(CCCCCCCCCCCC)c1nc(NCC2CCN(C)CC2)nc(SCCCCCC)n1 [S6^2N12 D10]
  Absolute DNA transfection efficiency in HEK293 cells: 0.0%

## CCCCCCCSc1nc(NCCCCCC)nc(NCCN(C)C)n1 [S7N6 D1]
  Absolute DNA transfection efficiency in HEK293 cells: 17.6%

## CCCCCCCSc1nc(NCCCCCC)nc(NCCN2CCOCC2)n1 [S7N6 D2]
  Absolute DNA transfection efficiency in HEK293 cells: 1.8%

## CCCCCCCSc1nc(NCCCCCC)nc(NCCN2CCCC2)n1 [S7N6 D3]
  Absolute DNA transfection efficiency in HEK293 cells: 34.7%

## CCCCCCCSc1nc(NCCCCCC)nc(NCCN2CCCCC2)n1 [S7N6 D4]
  Absolute DNA transfection efficiency in HEK293 cells: 8.7%

## CCCCCCCSc1nc(NCCCCCC)nc(NCCN2CCN(C)CC2)n1 [S7N6 D5]
  Absolute DNA transfection efficiency in HEK293 cells: 28.5%

## CCCCCCCSc1nc(NCCCCCC)nc(NCCCN(C)C)n1 [S7N6 D6]
  Absolute DNA transfection efficiency in HEK293 cells: 27.2%

## CCCCCCCSc1nc(NCCCCCC)nc(NCCN(CC)CC)n1 [S7N6 D7]
  Absolute DNA transfection efficiency in HEK293 cells: 11.2%

## CCCCCCCSc1nc(NCCCCCC)nc(NCCCN2CCOCC2)n1 [S7N6 D8]
  Absolute DNA transfection efficiency in HEK293 cells: 4.7%

## CCCCCCCSc1nc(NCCCCCC)nc(NCCCN2CCN(C)CC2)n1 [S7N6 D9]
  Absolute DNA transfection efficiency in HEK293 cells: 20.3%

## CCCCCCCSc1nc(NCCCCCC)nc(NCC2CCN(C)CC2)n1 [S7N6 D10]
  Absolute DNA transfection efficiency in HEK293 cells: 6.3%

## CCCCCCCNc1nc(NCCN(C)C)nc(SCCCCCCC)n1 [S7N7 D1]
  Absolute DNA transfection efficiency in HEK293 cells: 23.6%

## CCCCCCCNc1nc(NCCN2CCOCC2)nc(SCCCCCCC)n1 [S7N7 D2]
  Absolute DNA transfection efficiency in HEK293 cells: 2.5%

## CCCCCCCNc1nc(NCCN2CCCC2)nc(SCCCCCCC)n1 [S7N7 D3]
  Absolute DNA transfection efficiency in HEK293 cells: 9.2%

## CCCCCCCNc1nc(NCCN2CCCCC2)nc(SCCCCCCC)n1 [S7N7 D4]
  Absolute DNA transfection efficiency in HEK293 cells: 11.3%

## CCCCCCCNc1nc(NCCN2CCN(C)CC2)nc(SCCCCCCC)n1 [S7N7 D5]
  Absolute DNA transfection efficiency in HEK293 cells: 33.5%

## CCCCCCCNc1nc(NCCCN(C)C)nc(SCCCCCCC)n1 [S7N7 D6]
  Absolute DNA transfection efficiency in HEK293 cells: 33.5%

## CCCCCCCNc1nc(NCCN(CC)CC)nc(SCCCCCCC)n1 [S7N7 D7]
  Absolute DNA transfection efficiency in HEK293 cells: 11.4%

## CCCCCCCNc1nc(NCCCN2CCOCC2)nc(SCCCCCCC)n1 [S7N7 D8]
  Absolute DNA transfection efficiency in HEK293 cells: 5.3%

## CCCCCCCNc1nc(NCCCN2CCN(C)CC2)nc(SCCCCCCC)n1 [S7N7 D9]
  Absolute DNA transfection efficiency in HEK293 cells: 10.9%

## CCCCCCCNc1nc(NCC2CCN(C)CC2)nc(SCCCCCCC)n1 [S7N7 D10]
  Absolute DNA transfection efficiency in HEK293 cells: 8.6%

## CCCCCCCCNc1nc(NCCN(C)C)nc(SCCCCCCC)n1 [S7N8 D1]
  Absolute DNA transfection efficiency in HEK293 cells: 15.6%

## CCCCCCCCNc1nc(NCCN2CCOCC2)nc(SCCCCCCC)n1 [S7N8 D2]
  Absolute DNA transfection efficiency in HEK293 cells: 2.7%

## CCCCCCCCNc1nc(NCCN2CCCC2)nc(SCCCCCCC)n1 [S7N8 D3]
  Absolute DNA transfection efficiency in HEK293 cells: 9.3%

## CCCCCCCCNc1nc(NCCN2CCCCC2)nc(SCCCCCCC)n1 [S7N8 D4]
  Absolute DNA transfection efficiency in HEK293 cells: 15.5%

## CCCCCCCCNc1nc(NCCN2CCN(C)CC2)nc(SCCCCCCC)n1 [S7N8 D5]
  Absolute DNA transfection efficiency in HEK293 cells: 22.1%

## CCCCCCCCNc1nc(NCCCN(C)C)nc(SCCCCCCC)n1 [S7N8 D6]
  Absolute DNA transfection efficiency in HEK293 cells: 22.3%

## CCCCCCCCNc1nc(NCCN(CC)CC)nc(SCCCCCCC)n1 [S7N8 D7]
  Absolute DNA transfection efficiency in HEK293 cells: 26.8%

## CCCCCCCCNc1nc(NCCCN2CCOCC2)nc(SCCCCCCC)n1 [S7N8 D8]
  Absolute DNA transfection efficiency in HEK293 cells: 2.7%

## CCCCCCCCNc1nc(NCCCN2CCN(C)CC2)nc(SCCCCCCC)n1 [S7N8 D9]
  Absolute DNA transfection efficiency in HEK293 cells: 14.9%

## CCCCCCCCNc1nc(NCC2CCN(C)CC2)nc(SCCCCCCC)n1 [S7N8 D10]
  Absolute DNA transfection efficiency in HEK293 cells: 9.5%

## CCCCCCCCCNc1nc(NCCN(C)C)nc(SCCCCCCC)n1 [S7N9 D1]
  Absolute DNA transfection efficiency in HEK293 cells: 28.8%

## CCCCCCCCCNc1nc(NCCN2CCOCC2)nc(SCCCCCCC)n1 [S7N9 D2]
  Absolute DNA transfection efficiency in HEK293 cells: 13.9%

## CCCCCCCCCNc1nc(NCCN2CCCC2)nc(SCCCCCCC)n1 [S7N9 D3]
  Absolute DNA transfection efficiency in HEK293 cells: 12.3%

## CCCCCCCCCNc1nc(NCCN2CCCCC2)nc(SCCCCCCC)n1 [S7N9 D4]
  Absolute DNA transfection efficiency in HEK293 cells: 13.0%
